Legend:
[1] = Inhibition of Aquifex aeolicus IspH expressed in Escherichia coli BL21(DE3)
[2] = Inhibition of Escherichia coli IspC
[3] = Inhibition of Escherichia coli IspF
[4] = Inhibition of Escherichia coli IspE
[5] = Competitive inhibition of Escherichia coli IspG expressed in Escherichia coli BL21(DE3) using MEcPP as substrate preincubated for 10 mins followed by substrate addition by Michaelis-Menten equation analysis
[6] = Inhibition of Chlamydomonas DXS
[7] = molecular target: T1, 2-C-methyl-D-erythritol 4-phosphate cytidylyltransferase, chloroplastic (Arabidopsis thaliana, UniProt P69834); experiment: Inhibition of Arabidopsis thaliana IspD
T1 sequence (P69834 whole entry): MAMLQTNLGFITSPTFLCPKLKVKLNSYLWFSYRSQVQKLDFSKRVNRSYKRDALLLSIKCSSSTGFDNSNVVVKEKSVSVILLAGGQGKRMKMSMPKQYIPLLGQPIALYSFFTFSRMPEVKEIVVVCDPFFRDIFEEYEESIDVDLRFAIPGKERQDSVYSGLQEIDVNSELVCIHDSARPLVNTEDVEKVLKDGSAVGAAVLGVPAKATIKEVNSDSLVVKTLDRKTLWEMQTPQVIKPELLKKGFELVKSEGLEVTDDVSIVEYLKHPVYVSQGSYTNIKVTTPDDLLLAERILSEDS

[8] = Inhibition of Escherichia coli IspE by CDP-ME-coupled photometric analysis
[9] = Inhibition of IspD (unknown origin)
[10] = Inhibition of Escherichia coli IspF by fluorescence titration assay
[11] = Inhibition of Aquifex aeolicus IspH expressed in Escherichia coli BL21(DE3) using HMBPP as substrate preincubated for 10 mins followed by substrate addition
[12] = molecular target: 2-C-methyl-D-erythritol 2,4-cyclodiphosphate synthase (Mycobacterium tuberculosis (strain ATCC 25618 / H37Rv), UniProt P9WKG5); experiment: Inhibition of Mycobacterium tuberculosis H37Rv IspF expressed in Escherichia coli XL1-Blue measured for 30 mins by photometric plate reader analysis
[13] = Inhibition of recombinant Plasmodium falciparum IspF measured for 30 mins by photometric plate reader analysis
[14] = Inhibition of recombinant Pseudomonas aeruginosa DXS expressed in Escherichia coli by spectrophotometric analysis
[15] = Inhibition of Escherichia coli DXS

Chain of 2-C-methyl-D-erythritol 2,4-cyclodiphosphate synthase (P9WKG5 whole entry): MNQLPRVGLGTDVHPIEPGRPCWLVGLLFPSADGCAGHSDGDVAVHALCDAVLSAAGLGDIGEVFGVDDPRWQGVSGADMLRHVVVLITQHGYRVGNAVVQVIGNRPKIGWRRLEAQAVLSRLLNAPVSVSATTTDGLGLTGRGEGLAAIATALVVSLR

O=P(O)(O)OP(=O)(O)OCCc1cccnc1 [PYRIDIN-3-YL-ETHYL-DIPHOSPHATE]
IC50 [1]: 9.1 µM

O=CN(O)CCCP(=O)(O)O [FOSMIDOMYCIN]
IC50 [2]: 0.035 µM

Nc1ccn(Cc2ccc(CNC(=O)c3ccccc3)c3ccccc23)c(=O)n1
IC50 [3]: 450 µM

CCS(=O)(=O)NCC#Cc1cn(C2CCCS2)c(=O)nc1N (stereo unspecified)
IC50 [4]: 6 µM

C#CCOP(=O)(O)OP(=O)(O)O [PROP-2-YNYL DIPHOSPHATE]
IC50 [5]: 0.75 µM

CC1(C)C(=O)ON(Cc2ccccc2Cl)C1=O [KETOCLOMAZONE]
IC50 [6]: 100 µM

Oc1c(Cc2ccccc2)c(Cl)nc2ncnn12
IC50 [7]: 0.14 µM

Nc1ccn([C@@H]2O[C@H](CNC(=O)CCc3nc4ccccc4[nH]3)[C@@H](O)[C@H]2O)c(=O)n1
IC50 [8]: 1670 µM

O=P(O)(O)OC[C@@H](O)[C@@H](O)CO
IC50 [9]: 1360 µM

CN(C)c1cccc2c(S(=O)(=O)NCCOP(=O)(O)OP(=O)(O)OC[C@H]3O[C@@H](n4ccc(N)nc4=O)[C@H](O)[C@@H]3O)cccc12
IC50 [10]: 3000 µM

C#CCCOP(=O)(O)OP(=O)(O)O [BUT-3-YNYL DIPHOSPHATE]
IC50 [11]: 0.45 µM

CCOC(=O)C1=C(C)N=c2s/c(=C\c3cc(Br)c(O)c(Br)c3)c(=O)n2C1c1cccs1 (stereo unspecified)
IC50 [12]: 6.1 µM
IC50 [13]: 9.6 µM

CC(=O)N(O)CCCP(=O)(O)O
IC50 [2]: 0.05 µM

O=C(O)C(=O)CF
IC50 [14]: 400 µM
IC50 [15]: 80 µM

From ChEMBL document CHEMBL3217583, “The MEP pathway and the development of inhibitors as potential anti-infective agents” (Medchemcomm, 2012)
